Where a name gives a salt, the structure may show the parent alone. Read-outs that look alike come from different tables or passages of the source.
How the values were obtained:
Assay in all cases: Effect of potential inhibitors and metallic ions on rate of formation of pravastatin sodium from sodium ML-236B carboxylate (method ii)
cytochrome P-450sca-1 = assay type: biochemical, Streptomyces carbophilus; settings: for Residual activity of enzyme P-450sca-1: 5 min; for inhibition of cytochrome (in words): each cytochrome
Protocol: (§1) The following cocktail of components is employed:
(§2) The components of the Table are mixed, the solution is shaken at 30°C for 5 minutes, and then 10 »l of 6 N NaOH is added and the reaction stopped. The amount of pravastatin sodium formed by the enzyme system is determined with HPLC.
(§3) The effects of potential inhibitors against cytochrome P-450sca-1 P-450sca-2, P-450sca-3 and the effects of metallic ions on the action of the cytochrome P-450 can be assessed quantitatively using the method (ii).

P-450sca-2 = target: T1, P-450sca-2 (Streptomyces carbophilus, UniProt Q59831); assay type: biochemical; settings: for remaining activity at 2000 µM: read-out: Residual activity of enzyme P-450sca-2
T1 construct: made in house; host or cells: Streptomyces carbophilus SANK 62585 (FERM BP-1145), native producer, not recombinant
T1 sequence (Q59831 1-410): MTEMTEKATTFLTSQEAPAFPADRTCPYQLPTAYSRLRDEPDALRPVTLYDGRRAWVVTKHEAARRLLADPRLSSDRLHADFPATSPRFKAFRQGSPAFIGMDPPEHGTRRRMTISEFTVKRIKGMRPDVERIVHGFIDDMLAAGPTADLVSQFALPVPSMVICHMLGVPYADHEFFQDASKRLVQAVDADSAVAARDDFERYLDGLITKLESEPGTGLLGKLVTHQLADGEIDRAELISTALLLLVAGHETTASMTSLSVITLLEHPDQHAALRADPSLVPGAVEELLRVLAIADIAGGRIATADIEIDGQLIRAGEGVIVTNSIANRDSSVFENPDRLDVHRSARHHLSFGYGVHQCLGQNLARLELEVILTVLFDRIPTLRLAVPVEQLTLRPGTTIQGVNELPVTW
Protocol: (§4) (ii) Measurement of rate of formation of pravastatin sodium from sodium ML-236B carboxylate
as §1, §2, §3

P-450sca-3 = assay type: biochemical, Streptomyces carbophilus
Protocol: as §4, §1, §2, §3

| SMILES | inhibition of cytochrome (in words) (cytochrome P-450sca-1) | inhibition of cytochrome (in words) (P-450sca-2; each cytochrome) | inhibition of cytochrome (in words) (P-450sca-3; each cytochrome) | Residual activity of enzyme P-450sca-1 (cytochrome P-450sca-1; 1 mM added compound) | Residual activity of enzyme P-450sca-2 (P-450sca-2; 1 mM added compound) | Residual activity of enzyme P-450sca-3 (P-450sca-3; 1 mM added compound) | other results |
| --- | --- | --- | --- | --- | --- | --- | --- |
| [C-]#[O+] [CO, carbon monoxide] | inhibited | inhibited | inhibited | – | – | – | Residual activity of enzyme P-450sca-1 (cytochrome P-450sca-1; CO bubbled in for 1 minute): 50.0%; Residual activity of enzyme P-450sca-2 (P-450sca-2; CO bubbled in for 1 minute): 55.0%; Residual activity of enzyme P-450sca-3 (P-450sca-3; CO bubbled in for 1 minute): 60.4% |
| [Ca+2].[Cl-].[Cl-] [CaCl₂] | – | – | – | 100.0% | 100.0% | 100.0% | – |
| CN/C(=N/CCSCc1nc[nH]c1C)NC#N [Cimetidine] | inhibited | – | – | – | – | – | Residual activity of enzyme P-450sca-1 (cytochrome P-450sca-1; 2 mM added compound): 58.7%; inhibition of cytochrome (in words) (P-450sca-2): inhibited; remaining activity at 2000 µM (P-450sca-2): 45.7%; inhibition of cytochrome (in words) (P-450sca-3): inhibited; Residual activity of enzyme P-450sca-3 (P-450sca-3; 2000 µM): 43.8% |
| [Cl-].[Cl-].[Co+2] [CoCl₂] | inhibited | inhibited | inhibited | 65.0% | 67.5% | 60.1% | – |
| [Cl][Cu][Cl] [CuCl₂] | inhibited | inhibited | inhibited | 0% | 0% | 0% | – |
| [Cl][Mn][Cl] [MnCl₂] | inhibited | inhibited | inhibited | 20.0% | 18.7% | 17.5% | – |
| CCCC(C(=O)OCCN(CC)CC)(c1ccccc1)c1ccccc1 [SKF-525A, 2-diethylaminoethyl-2,2-diphenyl valerate hydrochloride] | inhibited | inhibited | inhibited | – | – | – | Residual activity of enzyme P-450sca-1 (cytochrome P-450sca-1; 2 mM added compound): 25.8%; remaining activity at 2000 µM (P-450sca-2; 2 mM added compound): 22.8%; Residual activity of enzyme P-450sca-3 (P-450sca-3; 2 mM added compound): 24.1% |

From patent EP0281245B1, “Cytochrome P-450 enzymes” (Sankyo Company Limited, priority 1987, dated 1988)
